Results taken from patent US9789101B2, “Methods and compositions for treating microbial infection using pyrroloquinone” (HELPERBY THERAPEUTICS LIMITED, priority 2010, dated 2017).
Counter-ions that a name gives are not always drawn.

How the values were obtained:
[1] = tested on: log phase Staphylococcus aureus; test: Chequerboard analysis of HT00800059 and mupirocin against log phase Staphylococcus aureus; type: cell-based, Staphylococcus aureus (Oxford); conditions: for optical density reading at 405 nm: 24 hours
Method: Staphylococcus aureus (Oxford); Gram positive; Reference strain. Log phase growth of […] sensitive Staphylococcus aureus (MSSA) was carried out as follows: • Bacteria were grown in 10 ml of nutrient broth (No. 2, (Oxoid)) overnight at 37° C. with continuous shaking at 120 rpm. […] The cultures were incubated at 37° C. with shaking for 1-2 hours to reach log CFU 6. Viability of the bacteria was estimated by colony forming unit (CFU) counts. From serial 10-fold dilutions of the experimental cultures, 100 μl samples were added to triplicate plates of nutrient agar plates (Oxoid) or blood agar plates (Oxoid). CFUs were counted after incubation of the plates at 37° C. for 24 hours. […] 290 μl of the cell suspension was added to each well of the 96 well plate, which was incubated at 37° C. for 24 hours. […] MIC determination: The optical density of the bacterial cells was read at 405 nm using a plate reader (Bio TEK). The MIC concentration was determined as the lowest concentration of drug which inhibits the bacterial growth. […] HT00800059 was dissolved in H2O to the stock solution 30.07 mg/ml. […] HT00800059 (30.7 mg/ml) was performed in a serial of 2 fold dilutions. This was followed by the addition of 280 μl of log phase culture at 10^6 CFU/ml to make the final concentrations of each drug as shown. In the above table, values in bold text are for HT00800059. Values in plain text are for mupirocin. The numbers shown in each well are μg/ml. Incubation of the compounds with the bacterial suspension was carried out for 24 hours. The kill effects of the drug combination were measured by optical density reading at 405 nm with a plate reader (Bio TEK). The fractional inhibitory concentration (FIC) index was carried out as following: (MIC of drug A, tested in combination)/(MIC of drug A, tested alone)+(MIC of drug B, tested in combination)/(MIC of drug B, tested alone). The interaction was defined as synergistic if the FIC index was <1, additive if the FIC index was =1 and antagonistic if the FIC index was >1.

[2] = tested on: Mupirocin Resistant S. aureus (28 Passages); test: Chequerboard analysis of HT00800059 and mupirocin against mupirocin resistant S. aureus (28 passages); type: cell-based, Staphylococcus aureus
Method: (§1) Staphylococcus aureus (Oxford); Gram positive; Reference strain.
(§2) Log phase growth of mupirocin resistant Staphylococcus aureus (MSSA) was carried out as follows: • Bacteria were grown in 10 ml of nutrient broth (No. 2, (Oxoid)) overnight at 37° C. with continuous shaking at 120 rpm. The overnight cultures were diluted 1000× with iso-sensitest broth. The cultures were incubated at 37° C. with shaking for 1-2 hours to reach log CFU 6. Viability of the bacteria was estimated by colony forming unit (CFU) counts. From serial 10-fold dilutions of the experimental cultures, 100 μl samples were added to triplicate plates of nutrient agar plates (Oxoid) or blood agar plates (Oxoid). CFUs were counted after incubation of the plates at 37° C. for 24 hours.
(§3) Bacterial cultures: 10 μl of overnight cultures was added to 10 ml of fresh iso-sensitest broth to make the inoculation to 10^6 CFU/ml. 290 μl of the cell suspension was added to each well of the 96 well plate, which was incubated at 37° C. for 24 hours. 300 μl of iso-sensitest broth without bacterial cells were added to wells of the plate as a no bacterial control.
(§4) MIC determination: The optical density of the bacterial cells was read at 405 nm using a plate reader (Bio TEK). The MIC concentration was determined as the lowest concentration of drug which inhibits the bacterial growth.
(§5) Mupirocin was dissolved in DMSO to the stock concentration of 10 mg/ml. HT00800059 was dissolved in H2O to the stock solution 30.07 mg/ml.
(§6) Mupirocin (10 mg/ml) was firstly diluted to 3.84 mg/ml, then further diluted in a serial of 2 fold dilutions. HT00800059 (30.7 mg/ml) was performed in a serial of 2 fold dilutions.
(§7) This was followed by the addition of 280 μl of log phase culture at 10^6 CFU/ml to make the final concentrations of each drug as shown in Table 1 and Table 2.
(§8) In the above table, values in bold text are for HT00800059. Values in plain text are for mupirocin. The numbers shown in each well are μg/ml.
(§9) Incubation of the compounds with the bacterial suspension was carried out for 24 hours. The kill effects of the drug combination were measured by optical density reading at 405 nm with a plate reader (Bio TEK).
(§10) The fractional inhibitory concentration (FIC) index was carried out as following: (MIC of drug A, tested in combination)/(MIC of drug A, tested alone)+(MIC of drug B, tested in combination)/(MIC of drug B, tested alone). The interaction was defined as synergistic if the FIC index was <1, additive if the FIC index was =1 and antagonistic if the FIC index was >1.

[3] = tested on: Mupirocin Resistant S. aureus (24 Passages); test: Chequerboard analysis of HT00800059 and mupirocin against mupirocin resistant S. aureus (24 passages); type: cell-based, Staphylococcus aureus
Method: as §1, §2, §3, §4, §5, §6, §7, §8, §9, §10

[4] = Staphylococcus aureus, read-out: alone MIC

CCCCOc1ccc(C(=O)CCN2CCCCC2)cc1 [HT00800059, dyclonine (1-(4-Butoxyphenyl)-3-(1-piperidinyl)-1-propanone) hydrochloride]
MIC [1, 4]: 512 mg/L | MIC before combination ([1]; iso-sensitest broth): 512 mg/L | MIC post combination ([1]; iso-sensitest broth): 64 mg/L | optical density reading at 405 nm ([1]; iso-sensitest broth, HT00800059 1 μg/ml, mupirocin μg/ml: 1,0.5,0.25,0.125,0.0625,0.03125,0.015625,0): 1.49 | optical density reading at 405 nm ([1]; iso-sensitest broth, HT00800059 2 μg/ml, mupirocin μg/ml: 1,0.5,0.25,0.125,0.0625,0.03125,0.015625,0): 1.47 | optical density reading at 405 nm ([1]; iso-sensitest broth, HT00800059 4 μg/ml, mupirocin μg/ml: 1,0.5,0.25,0.125,0.0625,0.03125,0.015625,0): 1.46 | optical density reading at 405 nm ([1]; iso-sensitest broth, HT00800059 8 μg/ml, mupirocin μg/ml: 1,0.5,0.25,0.125,0.0625,0.03125,0.015625,0): 1.47 | optical density reading at 405 nm ([1]; iso-sensitest broth, HT00800059 16 μg/ml, mupirocin μg/ml: 1,0.5,0.25,0.125,0.0625,0.03125,0.015625,0): 1.52 | optical density reading at 405 nm ([1]; iso-sensitest broth, HT00800059 32 μg/ml, mupirocin μg/ml: 1,0.5,0.25,0.125,0.0625,0.03125,0.015625,0): 1.55 | optical density reading at 405 nm ([1]; iso-sensitest broth, HT00800059 64 μg/ml, mupirocin μg/ml: 1,0.5,0.25,0.125,0.0625,0.03125,0.015625,0): 1.34 | optical density reading at 405 nm ([1]; iso-sensitest broth, HT00800059 128 μg/ml, mupirocin μg/ml: 1,0.5,0.25,0.125,0.0625,0.03125,0.015625,0): 1.20 | optical density reading at 405 nm ([1]; iso-sensitest broth, HT00800059 256 μg/ml, mupirocin μg/ml: 1,0.5,0.25,0.125,0.0625,0.03125,0.015625,0): 1.09 | optical density reading at 405 nm ([1]; iso-sensitest broth, HT00800059 512 μg/ml, mupirocin μg/ml: 1,0.5,0.25,0.125,0.0625,0.03125,0.015625,0): 0.36 | optical density reading at 405 nm ([1]; iso-sensitest broth, HT00800059 1024 μg/ml, mupirocin μg/ml: 1,0.5,0.25,0.125,0.0625,0.03125,0.015625,0): 0.36 | MIC before combination ([1]; nutrient broth): 512 mg/L | MIC post combination ([1]; nutrient broth): 64 mg/L | optical density reading at 405 nm ([1]; nutrient broth, HT00800059 1 μg/ml, mupirocin μg/ml: 1,0.5,0.25,0.125,0.625 [sic],0.03125,0.15625 [sic],0): 0.858 | optical density reading at 405 nm ([1]; nutrient broth, HT00800059 2 μg/ml, mupirocin μg/ml: 1,0.5,0.25,0.125,0.625 [sic],0.03125,0.15625 [sic],0): 0.884 | optical density reading at 405 nm ([1]; nutrient broth, HT00800059 4 μg/ml, mupirocin μg/ml: 1,0.5,0.25,0.125,0.625 [sic],0.03125,0.15625 [sic],0): 0.885 | optical density reading at 405 nm ([1]; nutrient broth, HT00800059 8 μg/ml, mupirocin μg/ml: 1,0.5,0.25,0.125,0.625 [sic],0.03125,0.15625 [sic],0): 0.867 | optical density reading at 405 nm ([1]; nutrient broth, HT00800059 16 μg/ml, mupirocin μg/ml: 1,0.5,0.25,0.125,0.625 [sic],0.03125,0.15625 [sic],0): 0.840 | optical density reading at 405 nm ([1]; nutrient broth, HT00800059 32 μg/ml, mupirocin μg/ml: 1,0.5,0.25,0.125,0.625 [sic],0.03125,0.15625 [sic],0): 0.759 | optical density reading at 405 nm ([1]; nutrient broth, HT00800059 64 μg/ml, mupirocin μg/ml: 1,0.5,0.25,0.125,0.625 [sic],0.03125,0.15625 [sic],0): 0.721 | optical density reading at 405 nm ([1]; nutrient broth, HT00800059 128 μg/ml, mupirocin μg/ml: 1,0.5,0.25,0.125,0.625 [sic],0.03125,0.15625 [sic],0): 0.528 | optical density reading at 405 nm ([1]; nutrient broth, HT00800059 256 μg/ml, mupirocin μg/ml: 1,0.5,0.25,0.125,0.625 [sic],0.03125,0.15625 [sic],0): 0.524 | optical density reading at 405 nm ([1]; nutrient broth, HT00800059 512 μg/ml, mupirocin μg/ml: 1,0.5,0.25,0.125,0.625 [sic],0.03125,0.15625 [sic],0): 0.284 | optical density reading at 405 nm ([1]; nutrient broth, HT00800059 1024 μg/ml, mupirocin μg/ml: 1,0.5,0.25,0.125,0.625 [sic],0.03125,0.15625 [sic],0): 0.291 | HT00800059 MIC in combination ([1]; with mupirocin 0.125 μg/ml): 64 mg/L | MIC [2, 4]: 512 mg/L | MIC before combination ([2]; resistant strain 28 passages): 512 mg/L | MIC post combination ([2]; resistant strain 28 passages): 64 mg/L | HT00800059 MIC in combination ([2]; with mupirocin 32 μg/ml, 28 passages): 64 mg/L | MIC [3, 4]: 512 mg/L | MIC before combination ([3]; resistant strain 24 passages): 512 mg/L | MIC post combination ([3]; resistant strain 24 passages): 64 mg/L | HT00800059 MIC in combination ([3]; with mupirocin 8 μg/ml, 24 passages): 64 mg/L
